In publication PMC9101642 (Molecules, 2022):

Target: estrogen receptor α
Assay: not given
Conditions: Table S1, PDB ligands; cited from earlier work

Compound | pKi
O=C(c1ccc(OCCN2CCCC2)cc1)c1c(-c2ccc(O)cc2)sc2cc(O)ccc12 [Compound 2R6Y] | 9.5
CC1CCN(CCOc2ccc(C(=O)c3c(-c4ccc(O)cc4)sc4cc(O)ccc34)cc2)CC1 [Compound 2R6W] | 9.4

Same assay, conditions: cited from earlier work

Compound | pIC50
CC1(O)CCC2c3ccc4cc(O)ccc4c3CCC21C (stereo not drawn) [Compound 2B1Z] | 7.10
Oc1ccc([C@@H]2Sc3cc(O)ccc3O[C@@H]2c2ccc(OCCN3CCCCC3)cc2)cc1 [Compound 1SJ0] | 9.09

Same assay, conditions: crystal test set TSCRY (WT and MUT complexes); cited from earlier work

Compound | pKi
Oc1ccc(C(c2ccc(O)cc2)(C(F)(F)F)C(F)(F)F)cc1 [Compound 3UUA] | 8.79
C[C@H]1CCC[C@H](O)CCCCCc2cc(O)cc(O)c2C(=O)O1 [Compound 4MG8] | 10.00
OCc1cc(Br)c(-c2ccc(O)cc2)c(-c2ccoc2)c1 [Compound 4DMA] | 5.60
C[C@H]1CCC[C@H](O)CCC/C=C/c2cc(O)cc(O)c2C(=O)O1 [Compound 4TUZ] | 10.00
CC(C)(c1ccc(O)cc1)c1ccc(O)cc1 [Compound 3UU7] | 8.79
O=C(c1ccc(O)cc1O)c1ccc(O)cc1O [Compound 4MGC] | 7.00
Oc1ccc(C(=C(Cl)Cl)c2ccc(O)cc2)cc1 [Compound 3UUC] | 5.70

Same assay, conditions: ligands of mutated (MUT) ERα complexes, training set; cited from earlier work

Compound | pIC50
Cc1cc(F)ccc1-c1c(Cc2ccc(/C=C/C(=O)O)cc2)c2ccc(O)cc2oc1=O [Compound 5AK2] | 8.40
O=C(c1ccc(OCCN2CCCC2)cc1)c1c(-c2ccc(O)cc2)sc2cc(O)ccc12 [Compound 2R6Y] | 8.90
CC1CCN(CCOc2ccc(C(=O)c3c(-c4ccc(O)cc4)sc4cc(O)ccc34)cc2)CC1 [Compound 2R6W] | 8.60
Oc1ccc(-c2n[nH]c3cc(O)ccc23)c(O)c1 [Compound 2QA6] | 7.30

Same assay, conditions: ligands of wild-type (WT) ERα complexes, training set; cited from earlier work

Compound | pIC50
Oc1ccc2c(c1)CCN(c1ccccc1)[C@H]2c1ccc(N2CCC3CCCCN3C2)cc1 (stereo partly drawn) [Compound 1XQC] | 7.20
CC/C(=C(\c1ccccc1)c1ccc(/C=C/C(=O)O)cc1)c1ccccc1 [Compound 1R5K] | 7.40

Same assay, conditions: modeled test set TSMOD1; cited from earlier work

Compound | pIC50
O=c1c(O)c(-c2ccc(O)c(O)c2)oc2cc(O)ccc12 [Fisetin] | 5.38
O=c1cc(-c2ccccc2)oc2cc(O)c(O)c(O)c12 [Baicalein] | 4.71
FC(F)(F)c1ccccc1CN=Cc1cn(-c2ccccc2)nc1-c1ccccc1 [Compound I11-4a10] | 3.61
COc1ccc([C@@H]2CC(=O)c3c(O)cc(O)cc3O2)cc1O [Hesperetin] | 4.4
Cc1ccc(N=Cc2cn(-c3ccc([N+](=O)[O-])cc3)nc2-c2ccccc2)cc1[N+](=O)[O-] [Compound I11-4b6] | 3.63
Cc1ccc(N=Cc2cn(-c3ccc([N+](=O)[O-])cc3)nc2-c2ccccc2)cc1 [Compound I11-4b2] | 3.58
Cc1ccc(N=Cc2cn(-c3ccccc3)nc2-c2ccccc2)cc1 [Compound I11-4a3b] | 4.25
O=c1c(O)c(-c2ccc(O)c(O)c2)oc2cc(O)cc(O)c12 [Quercetin] | 4.76
O=c1c(O)c(-c2ccccc2)oc2cc(O)cc(O)c12 [Galangin] | 4.81
Cc1ccc(N=Cc2cn(-c3ccccc3)nc2-c2ccccc2)cc1[N+](=O)[O-] [Compound I11-4a8] | 5.4
Brc1ccc(N=Cc2cn(-c3ccccc3)nc2-c2ccccc2)cc1 [Compound I11-4a5] | 5.52
Cc1cccc(C)c1N=Cc1cn(-c2ccccc2)nc1-c1ccccc1 [Compound I11-4a2] | 4.13
O=C1C[C@@H](c2ccc(O)cc2)Oc2cc(O)cc(O)c21 [Naringenin] | 4.18
Cc1ccccc1N=Cc1cn(-c2ccc([N+](=O)[O-])cc2)nc1-c1ccccc1 [Compound I11-4b1] | 3.58
Cc1ccccc1N=Cc1cn(-c2ccccc2)nc1-c1ccccc1 [Compound I11-4a1a] | 4.33
O=[N+]([O-])c1ccc(-n2cc(C=Nc3ccc(Cl)cc3)c(-c3ccccc3)n2)cc1 [Compound I11-4b3] | 3.61
COc1ccc(-c2cc(=O)c3c(O)c(OC)c(OC)cc3o2)cc1O [Eupatorin] | 5.09
Clc1ccccc1CN=Cc1cn(-c2ccccc2)nc1-c1ccccc1 [Compound I11-4a9] | 4.89

Same assay, conditions: modeled test set TSMOD2; cited from earlier work

Compound | pKi
CC(C)CNc1nc(NCC(C)C)nc(NCC(C)C)n1 [Compound I4-1a] | 3.19
COc1cc(C=CC=CC(=O)CCc2ccccc2)ccc1O [Compound I6-14] | 6.01
CCCc1c(-c2ccc(O)cc2)nn(-c2ccc(O)cc2)c1-c1ccc(O)cc1 [Compound I3-I3] | 9.23
COc1ccc(CCC(=O)C=CC=Cc2ccc([N+](=O)[O-])cc2)cc1 [Compound I6-15] | 5.63
CCCCc1c(-c2ccc(O)cc2)nn(-c2ccc(O)cc2)c1-c1ccc(O)cc1 [Compound I3-I4] | 8.68
O=C(C=CC=Cc1ccccc1)CCc1ccccc1 [Compound I6-1] | 6.19
Cc1c(-c2ccc(O)cc2)nn(-c2ccc(O)cc2)c1-c1ccc(O)cc1 [Compound I3-I1] | 7.25
Cc1c(-c2ccc(O)cc2)nn(-c2ccc(O)cc2)c1-c1ccc(OCCN2CCCCC2)cc1 [Compound I3-I-A1] | 7.57
CCc1c(-c2ccc(O)cc2)nn(-c2ccc(O)cc2)c1-c1ccc(OCCN(CC)CC)cc1 [Compound I3-I-E2] | 8.74
O=C(C=CC=Cc1ccc([N+](=O)[O-])cc1)CCc1ccccc1 [Compound I6-16] | 6.29
CCCNc1nc(NCCC)nc(NCCC)n1 [Compound I4-1b] | 3.10
CCc1c(-c2ccc(O)cc2)nn(-c2ccc(O)cc2)c1-c1ccc(OCC(O)CO)cc1 (stereo not drawn) [Compound I3-I-G] | 8.37
CCCc1c(-c2ccc(O)cc2)nn(-c2ccc(O)cc2)c1-c1ccc(OCCN2CCCCC2)cc1 [Compound I3-I-A3] | 8.36
COc1ccc(CCC(=O)C=CC=Cc2ccc(N(C)C)cc2)cc1 [Compound I6-18] | 5.66
CCc1c(-c2ccc(O)cc2)nn(-c2ccc(O)cc2)c1-c1ccc(OCCN2CCCC2=O)cc1 [Compound I3-I-F] | 8.64
CCc1c(-c2ccc(O)cc2)nn(-c2ccc(O)cc2)c1-c1ccc(O)cc1 [Compound I3-I2] | 9.08
CCc1c(-c2ccc(O)cc2)nn(-c2ccc(O)cc2)c1-c1ccc(OCCN2CCCC2)cc1 [Compound I3-I-C2] | 8.72
c1ccc(CNc2nc(NCc3ccccc3)nc(NCc3ccccc3)n2)cc1 [Compound I4-1c] | 3.39
COc1ccc(CCC(=O)C=CC=Cc2ccc(O)c(OC)c2)cc1 [Compound I6-12] | 5.86
Cc1c(-c2ccc(O)cc2)nn(-c2ccc(O)cc2)c1-c1ccc(OCCN2CCCC2)cc1 [Compound I3-I-C1] | 7.60
CCc1c(-c2ccc(O)cc2)nn(-c2ccc(O)cc2)c1-c1ccc(OCCN2CCOCC2)cc1 [Compound I3-I-B] | 8.49
CN(C)c1ccc(C=CC=CC(=O)CCc2ccc(O)cc2)cc1 [Compound I6-10] | 3.63
CCc1c(-c2ccc(O)cc2)nn(-c2ccc(O)cc2)c1-c1ccc(OCCN(C)C)cc1 [Compound I3-I-D] | 8.48
CCN(CC)CCOc1ccc(-c2c(C)c(-c3ccc(O)cc3)nn2-c2ccc(O)cc2)cc1 [Compound I3-I-E1] | 8.42
CN(C)c1ccc(C=CC=CC(=O)CCc2ccccc2)cc1 [Compound I6-19] | 6.04
CCc1c(-c2ccc(O)cc2)nn(-c2ccc(O)cc2)c1-c1ccc(OCCN2CCCCC2)cc1 [Compound I3-I-A2] | 8.60
COc1ccc(CCC(=O)C=CC=Cc2ccccc2)cc1 [Compound I6-17] | 5.83

Same assay, conditions: modeled test set TSMOD3; cited from earlier work

Compound | pRBA
O=c1cc(-c2ccccc2)oc2cc(O)c(O)c(O)c12 [Baicalein] | 6.05
O=c1c(O)c(-c2ccc(O)cc2)oc2ccc(O)cc12 [-Trihydroxy flavone] | 3.35
COc1ccc(-c2coc3cc(O)cc(O)c3c2=O)cc1 [Biochanin A] | 5.37
O=c1c(-c2ccc(O)c(O)c2)coc2cc(O)ccc12 [-Trihydroxy isoflavone] | 5.35
O=c1cc(-c2ccccc2)oc2ccc(O)cc12 [6-Hydroxyflavone] | 6.40
O=C1CC(c2ccccc2)Oc2ccc(O)cc21 (stereo not drawn) [6-Hydroxyflavanone] | 6.05
O=c1cc(-c2ccc(O)cc2)oc2ccc(O)cc12 [-Dihydroxyflavone] | 3.82

Tested on: MCF-7 cells
Assay: Cell cycle distribution by flow cytometry
Type: cell-based, human
Conditions: 0.1 nM, 24 h

Compound | Cell Cycle (%) G0/G1 | Cell Cycle (%) G2/M | Cell Cycle (%) S
C[C@]12CC[C@@H]3c4ccc(O)cc4CC[C@H]3[C@@H]1CC[C@@H]2O [Compound E2, 17β-estradiol, reference compound] | 17.34 ± 0.35 *^,‡,§ % | 54.51 ± 0.57 *^,‡,§ % | 28.15 ± 0.52 *^,‡,§ %

Same assay, conditions: 1 nM, 24 h

Compound | Cell Cycle (%) G0/G1 | Cell Cycle (%) G2/M | Cell Cycle (%) S
C[C@]12CC[C@@H]3c4ccc(O)cc4CC[C@H]3[C@@H]1CC[C@@H]2O [Compound E2, 17β-estradiol, reference compound] | 25.34 ± 0.36 *^,‡,§ % | 45.14 ± 0.33 *^,‡,§ % | 29.52 ± 0.46 *^,‡,§ %
